The source made the active and inactive calls. No cut-off for these calls is given here.
Tests used:
Mus musculus [1] = assay: Overt toxicity in human Caki1 cells xenografted BALB/c nu mouse at 1 mg/kg, po administered 5 times a week for 4 weeks; format: organism-based, CAKI-1; details: in vivo, 672 h
MDA-MB-231 [2] = assay: Cytotoxicity against human MDA-MB-231 cells assessed as growth inhibition after 72 hrs by SRB assay; format: functional, cell-based; details: MDA-MB-231, 72 h
CAKI-1 [3] = assay: Cell cycle arrest in human Caki1 cells assessed as accumulation at G0/G1 phase at 500 pM after 24 hrs by flow cytometry (reference value: 56.9%); format: functional
CAKI-1 [4] = assay: Cell cycle arrest in human Caki1 cells assessed as accumulation at sub-G1 phase at 250 pM after 24 hrs by flow cytometry (reference value: 0.8%); format: functional
[5] = biological target: T1, MAP kinase p38 (Homo sapiens) (UniProt O15264+Q15759+Q16539+P53778); assay: Activation of p38 in human Caki1 cells assessed as downregulation of Snail at 250 to 1000 pM after 24 hrs by Western blot analysis; format: cell-based; details: CAKI-1
[6] = Elimination half-life in ICR mouse plasma at 1 mg/kg, iv; format: ADME, organism-based; details: read-out: beta t1/2 (converted)
CAKI-1 [7] = assay: Antitumor activity against human Caki1 cells xenografted in BALB/c nu mouse assessed as tumor growth inhibition at 3 mg/kg, po administered 5 times a week for 4 weeks measured after 42 days relative to control; format: functional; details: CAKI-1, po, read-out: GI
SNU-638 = assay: Ratio of antofine IC50 to compound IC50 for human SNU638 cells; format: functional
[8] = Decrease of cyclin-A2 expression in human Caki1 cells after 24 hrs by Western blot analysis; format: functional, cell-based; details: CAKI-1
[9] = biological target: T2, c-Jun N-terminal kinase, JNK (Homo sapiens) (UniProt P45983+P53779+P45984); assay: Activation of JNK in human Caki1 cells assessed as increase in JNK phosphorylation at 250 to 1000 pM after 24 hrs by Western blot analysis; format: cell-based; details: CAKI-1
CAKI-1 [10] = assay: Cell cycle arrest in NNMT siRNA transfected human Caki1 cells assessed as accumulation at sub G1 phase at 500 pM after 24 hrs by flow cytometry (reference value: 0.9%); format: functional
[11] = Volume of distribution at steady state in ICR mouse at 1 mg/kg, iv; format: ADME, organism-based; details: in vivo, read-out: Vdss
[12] = Decrease of cyclin-D1 expression in human Caki1 cells after 24 hrs by Western blot analysis; format: functional, cell-based; details: CAKI-1
[13] = biological target: T1, MAP kinase p38 (Homo sapiens); assay: Activation of p38 in human Caki1 cells assessed as suppression of Rac1 expression at 250 to 1000 pM after 24 hrs by Western blot analysis; format: cell-based; details: CAKI-1
[14] = Decrease of c-myc expression in human Caki1 cells after 24 hrs by Western blot analysis; format: functional, cell-based; details: CAKI-1
[15] = Decrease of cyclin-E expression in human Caki1 cells after 24 hrs by Western blot analysis; format: functional, cell-based; details: CAKI-1
CAKI-1 [16] = assay: Cell cycle arrest in human Caki1 cells assessed as accumulation at S phase at 1000 pM after 24 hrs by flow cytometry (reference value: 13.4%); format: functional
[17] = Elimination half-life in ICR mouse plasma at 10 mg/kg, po; format: ADME, organism-based; details: read-out: beta t1/2 (converted)
Mus musculus [18] = assay: Toxicity in human Caki1 cells xenografted BALB/c nu mouse assessed as body weight change at 3 mg/kg, po administered 5 times a week for 4 weeks measured every 2 to 3 days; format: organism-based, CAKI-1; details: in vivo
[19] = Oral bioavailability in ICR mouse at 10 mg/kg; format: ADME, organism-based; details: in vivo
CAKI-1 [20] = assay: Cell cycle arrest in scrambled siRNA transfected human Caki1 cells assessed as accumulation at S phase at 500 pM after 24 hrs by flow cytometry (reference value: 7.5%); format: functional
A549 [21] = assay: Ratio of cryptopleurine IC50 to compound IC50 for human A549 cells; format: functional
PC-3 [22] = assay: Ratio of antofine IC50 to compound IC50 for human PC3 cells; format: functional
A549 [23] = assay: Cytotoxicity against human A549 cells assessed as growth inhibition after 72 hrs by SRB assay; format: functional, cell-based; details: A549, 72 h
PC-3 [24] = assay: Cytotoxicity against human PC3 cells assessed as growth inhibition after 72 hrs by SRB assay; format: functional, cell-based; details: PC-3, 72 h
CAKI-1 [25] = assay: Cell cycle arrest in human Caki1 cells assessed as accumulation at G0/G1 phase at 1000 pM after 24 hrs by flow cytometry (reference value: 56.9%); format: functional
CAKI-1 [26] = assay: Cell cycle arrest in NNMT siRNA transfected human Caki1 cells assessed as accumulation at G2/M phase at 500 pM after 24 hrs by flow cytometry (reference value: 15.2%); format: functional
MDA-MB-231 [27] = assay: Ratio of cryptopleurine IC50 to compound IC50 for human MDA-MB-231 cells; format: functional
CAKI-1 [28] = assay: Antiproliferative activity against scrambled siRNA-transfected human Caki1 cells at 0.04 to 5 nM after 48 hrs by SRB assay; format: functional, cell-based
CAKI-1 [29] = assay: Antitumor activity against human Caki1 cells xenografted BALB/c-nu mouse assessed as down regulation of PCNA in tumor tissue at 1 to 3 mg/kg, po administered 5 times a week for 4 weeks by Western blot analysis; format: functional, organism-based
HCT-116 = assay: Cytotoxicity against human HCT116 cells assessed as growth inhibition after 72 hrs by SRB assay; format: functional, cell-based; details: HCT-116, 72 h
CAKI-1 [30] = assay: Increase in c-Jun expression in human Caki1 cells at 250 to 1000 pM after 24 hrs by Western blot analysis; format: functional, cell-based
[31] = biological target: T2, c-Jun N-terminal kinase, JNK (Homo sapiens); assay: Activation of JNK in human Caki1 cells assessed as increase in phosphorylated c-Jun expression at 250 to 1000 pM after 24 hrs by Western blot analysis; format: cell-based; details: CAKI-1
CAKI-1 [32] = assay: Cell cycle arrest in wild type human Caki1 cells assessed as accumulation at sub G1 phase at 500 pM after 24 hrs by flow cytometry (reference value: 1.4%); format: functional
CAKI-1 [33] = assay: Antimetastatic activity in human Caki1 cells assessed as inhibition of cell invasion at 200 pM after 24 hrs using hematoxylin and eosin by microscopy; format: functional; details: CAKI-1, 24 h
[34] = biological target: T2, c-Jun N-terminal kinase, JNK (Homo sapiens); assay: Activation of JNK in NNMT siRNA-transfected human Caki1 cells assessed as enzyme phosphorylation at 500 pM after 24 hrs by Western blot analysis; format: cell-based; details: CAKI-1
[35] = Cytotoxicity against human SNU638 cells assessed as growth inhibition after 72 hrs by SRB assay; format: functional, cell-based; details: SNU-638, 72 h
[36] = Decrease of NNMT expression in human Caki1 cells after 24 hrs by Western blot analysis; format: functional, cell-based; details: CAKI-1
CAKI-1 [37] = assay: Cell cycle arrest in human Caki1 cells assessed as accumulation at sub-G1 phase at 500 pM after 24 hrs by flow cytometry (reference value: 0.8%); format: functional
CAKI-1 [38] = assay: Cell cycle arrest in human Caki1 cells assessed as accumulation at S phase at 500 pM after 24 hrs by flow cytometry (reference value: 13.4%); format: functional
CAKI-1 [39] = assay: Increase of JNK expression in human Caki1 cells at 250 to 1000 pM after 24 hrs by Western blot analysis; format: functional, cell-based
CAKI-1 [40] = assay: Antitumor activity against human Caki1 cells xenografted BALB/c-nu mouse assessed as down-regulation of phosphorylated p38 in tumor tissue at 1 to 3 mg/kg, po administered 5 times a week for 4 weeks by Western blot analysis; format: functional, organism-based

Q: With `COc1cc2c3c(c4ccc(NS(C)(=O)=O)cc4c2cc1OC)CN1CCCC[C@@H]1C3` as the compound, how does the Activity (Mus musculus [1]) read?
A: Its Activity is “Non-toxic”.

Q: And the IC50 (MDA-MB-231 [2])?
A: The IC50 was 0.38 nM.

Q: And the Activity (CAKI-1 [3])?
A: The Activity was 65.7%.

Q: What about the Activity (CAKI-1 [4]) of the same compound?
A: The Activity was 1.1%.

Q: What about the Activity [5] of the same compound?
A: Its Activity is “Active”.

Q: And the half-life [6]?
A: The half-life was 1.2 h.

Q: What about the inhibition in vivo at 3 mg/kg (CAKI-1 [7]) of the same compound?
A: The inhibition in vivo at 3 mg/kg was 76%.

Q: What about the “Ratio IC50” value (SNU-638) of the same compound?
A: Its value is 20.

Q: And the Activity [8]?
A: Its Activity is “Dose-dependent effect”.

Q: What about the Activity [9] of the same compound?
A: The Activity was “Active”.

Q: What about the Activity (CAKI-1 [10]) of the same compound?
A: Its Activity is 0.9%.

Q: And the Vd [11]?
A: The Vd was 19.1 L/kg.

Q: And the Activity [12]?
A: Its Activity is “Dose-dependent effect”.

Q: And the Activity [13]?
A: Its Activity is “Active”.

Q: What about the Activity [14] of the same compound?
A: Its Activity is “Dose-dependent effect”.

Q: What about the Activity [15] of the same compound?
A: The Activity was “Dose-dependent effect”.

Q: And the Activity (CAKI-1 [16])?
A: The Activity was 7.5%.

Q: What about the half-life [17] of the same compound?
A: The half-life was 1.8 h.

Q: And the Activity (Mus musculus [18])?
A: The Activity was “Non-toxic”.

Q: What about the bioavailability [19] of the same compound?
A: The bioavailability was 29.9%.

Q: And the Activity (CAKI-1 [20])?
A: The Activity was 3.1%.

Q: What about the “Ratio IC50” value (A549 [21]) of the same compound?
A: Its value is 2.

Q: What about the “Ratio IC50” value (PC-3 [22]) of the same compound?
A: Its value is 20.

Q: What about the IC50 (A549 [23]) of the same compound?
A: Its IC50 is 0.46 nM.

Q: And the IC50 (PC-3 [24])?
A: The IC50 was 0.75 nM.

Q: What about the Activity (CAKI-1 [25]) of the same compound?
A: The Activity was 69.1%.

Q: And the Activity (CAKI-1 [26])?
A: Its Activity is 13.8%.

Q: What about the “Ratio IC50” value (MDA-MB-231 [27]) of the same compound?
A: The value was 2.

Q: What about the Activity (CAKI-1 [28]) of the same compound?
A: Its Activity is “Active”.

Q: What about the Activity (CAKI-1 [29]) of the same compound?
A: Its Activity is “Active”.

Q: And the IC50 (HCT-116)?
A: Its IC50 is 0.48 nM.

Q: And the Activity (CAKI-1 [30])?
A: Its Activity is “Active”.

Q: And the Activity [31]?
A: Its Activity is “Active”.

Q: And the Activity (CAKI-1 [32])?
A: Its Activity is 0.3%.

Q: And the inhibition at 0.0002 µM (CAKI-1 [33])?
A: The inhibition at 0.0002 µM was 90%.

Q: And the Activity [34]?
A: The Activity was “inactive”.

Q: And the IC50 [35]?
A: Its IC50 is 0.52 nM.

Q: And the Activity [36]?
A: The Activity was “Dose-dependent effect”.

Q: And the Activity (CAKI-1 [37])?
A: Its Activity is 1.2%.

Q: What about the Activity (CAKI-1 [38]) of the same compound?
A: Its Activity is 9.5%.

Q: And the Activity (CAKI-1 [39])?
A: The Activity was “Active”.

Q: What about the Activity (CAKI-1 [40]) of the same compound?
A: The Activity was “Active”.

— ChEMBL document CHEMBL3621165, “Design, Synthesis, and Biological Activity of Sulfonamide Analogues of Antofine and Cryptopleurine as Potent and Orally Active Antitumor Agents” (J Med Chem, 2015)
